The values below come from PMC9942120 (iScience, 2023).

Type in all cases: cell-based
One experiment concerns the target T1, S100A16 (Homo sapiens, UniProt Q96FQ6).
T1 sequence (Q96FQ6 1-103): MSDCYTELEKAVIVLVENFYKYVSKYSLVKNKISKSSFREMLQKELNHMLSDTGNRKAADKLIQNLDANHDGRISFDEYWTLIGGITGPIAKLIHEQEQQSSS
Description: direct LC-MS/MS profiling of modified tryptic peptides. The following applies: covalent at Cys4; H358 cells, […] AMG510, […] h (methods print […] h).

The next experiment has as its target T2, ALDOA (Homo sapiens, UniProt P04075).
T2 sequence (P04075 2-364): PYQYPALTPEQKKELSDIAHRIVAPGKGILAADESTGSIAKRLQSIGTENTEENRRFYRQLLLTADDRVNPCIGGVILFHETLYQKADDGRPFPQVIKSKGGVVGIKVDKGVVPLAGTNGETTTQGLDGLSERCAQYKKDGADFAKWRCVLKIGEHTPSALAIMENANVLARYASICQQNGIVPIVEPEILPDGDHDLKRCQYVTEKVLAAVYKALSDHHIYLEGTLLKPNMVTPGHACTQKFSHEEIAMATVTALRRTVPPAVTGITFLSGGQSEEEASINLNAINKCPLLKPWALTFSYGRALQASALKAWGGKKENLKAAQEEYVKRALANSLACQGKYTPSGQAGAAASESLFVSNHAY
Description: LC-MS/MS site mapping. The conditions noted are these: covalent at Cys339; H358 cells treated with AMG510.

A further experiment concerns the target T3, SPTLC2 (Homo sapiens, UniProt O15270).
T3 sequence (O15270 1-562): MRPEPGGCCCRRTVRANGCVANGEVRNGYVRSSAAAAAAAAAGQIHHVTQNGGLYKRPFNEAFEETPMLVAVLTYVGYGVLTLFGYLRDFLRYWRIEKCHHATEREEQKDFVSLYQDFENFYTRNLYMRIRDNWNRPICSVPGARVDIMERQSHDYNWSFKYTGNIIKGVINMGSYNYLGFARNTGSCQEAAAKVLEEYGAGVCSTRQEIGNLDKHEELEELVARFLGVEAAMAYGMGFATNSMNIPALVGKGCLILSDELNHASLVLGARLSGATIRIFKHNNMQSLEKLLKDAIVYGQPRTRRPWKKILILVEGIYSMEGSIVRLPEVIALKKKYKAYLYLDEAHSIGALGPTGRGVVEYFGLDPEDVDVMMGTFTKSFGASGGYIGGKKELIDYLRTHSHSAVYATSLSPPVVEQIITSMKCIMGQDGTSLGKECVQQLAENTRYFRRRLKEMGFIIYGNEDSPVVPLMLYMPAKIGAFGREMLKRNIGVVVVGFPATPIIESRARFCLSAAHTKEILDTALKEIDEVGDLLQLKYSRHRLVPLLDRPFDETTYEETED
Description: direct LC-MS/MS profiling of modified tryptic peptides. The conditions noted are these: covalent at Cys99; H358 cells, […] AMG510, […] h (methods print […] h).

For another experiment, the target named is T4, RTN4 (Homo sapiens, UniProt Q9NQC3).
T4 sequence (Q9NQC3 1-1192): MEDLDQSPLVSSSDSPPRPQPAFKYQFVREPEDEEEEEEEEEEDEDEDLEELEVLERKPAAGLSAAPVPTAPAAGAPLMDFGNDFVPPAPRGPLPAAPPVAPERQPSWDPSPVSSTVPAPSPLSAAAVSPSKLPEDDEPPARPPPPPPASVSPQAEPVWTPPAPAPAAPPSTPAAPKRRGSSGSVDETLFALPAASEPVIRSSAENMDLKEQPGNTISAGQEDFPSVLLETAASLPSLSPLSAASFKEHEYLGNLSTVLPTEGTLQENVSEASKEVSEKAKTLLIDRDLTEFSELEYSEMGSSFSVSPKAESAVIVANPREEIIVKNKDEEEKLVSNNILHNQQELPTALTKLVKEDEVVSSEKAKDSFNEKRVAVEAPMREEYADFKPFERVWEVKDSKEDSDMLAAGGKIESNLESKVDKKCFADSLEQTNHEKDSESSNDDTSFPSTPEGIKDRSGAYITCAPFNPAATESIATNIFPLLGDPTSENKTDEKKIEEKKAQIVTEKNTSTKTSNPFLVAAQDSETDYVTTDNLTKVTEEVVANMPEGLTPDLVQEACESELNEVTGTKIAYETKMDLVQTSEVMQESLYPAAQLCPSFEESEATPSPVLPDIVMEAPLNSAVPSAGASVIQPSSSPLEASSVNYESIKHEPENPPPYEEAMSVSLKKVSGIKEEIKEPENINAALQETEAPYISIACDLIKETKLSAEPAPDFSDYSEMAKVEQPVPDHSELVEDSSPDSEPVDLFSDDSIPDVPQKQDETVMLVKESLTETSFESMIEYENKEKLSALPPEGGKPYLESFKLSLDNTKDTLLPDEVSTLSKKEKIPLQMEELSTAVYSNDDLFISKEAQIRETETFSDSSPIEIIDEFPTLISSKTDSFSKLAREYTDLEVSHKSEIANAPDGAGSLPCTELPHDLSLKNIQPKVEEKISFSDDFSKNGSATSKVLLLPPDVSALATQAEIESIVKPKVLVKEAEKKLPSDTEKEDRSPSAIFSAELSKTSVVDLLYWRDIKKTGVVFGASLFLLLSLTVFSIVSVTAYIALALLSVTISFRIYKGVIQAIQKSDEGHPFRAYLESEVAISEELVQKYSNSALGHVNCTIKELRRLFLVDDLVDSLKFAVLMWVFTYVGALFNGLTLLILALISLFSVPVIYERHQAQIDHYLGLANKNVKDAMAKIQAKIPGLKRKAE
Described as above. The following applies: covalent at Cys1101; H358 cells, […] AMG510, […] h (methods print […] h).

For another experiment, the target named is ANXA2 (Homo sapiens, UniProt P07355). The experiment is described as above. The conditions noted are these: covalent at Cys9; H358 cells, […] AMG510, […] h (methods print […] h).
Another experiment deals with PCBP1 (Homo sapiens, UniProt Q15365). Described as above. The conditions noted are these: covalent at Cys194; H358 cells, […] AMG510, […] h (methods print […] h).
Sequence of PCBP1 (Q15365 whole entry): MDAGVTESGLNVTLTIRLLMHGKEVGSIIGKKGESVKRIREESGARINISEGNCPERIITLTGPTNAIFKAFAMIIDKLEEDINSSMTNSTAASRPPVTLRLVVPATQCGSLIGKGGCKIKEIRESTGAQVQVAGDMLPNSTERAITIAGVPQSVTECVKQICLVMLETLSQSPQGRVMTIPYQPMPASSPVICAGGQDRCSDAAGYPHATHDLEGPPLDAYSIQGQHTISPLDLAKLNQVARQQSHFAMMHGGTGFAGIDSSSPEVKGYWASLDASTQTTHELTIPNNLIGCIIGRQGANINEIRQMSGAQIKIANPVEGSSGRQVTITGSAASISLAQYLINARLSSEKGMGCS

Sequence of ANXA2 (P07355 2-339): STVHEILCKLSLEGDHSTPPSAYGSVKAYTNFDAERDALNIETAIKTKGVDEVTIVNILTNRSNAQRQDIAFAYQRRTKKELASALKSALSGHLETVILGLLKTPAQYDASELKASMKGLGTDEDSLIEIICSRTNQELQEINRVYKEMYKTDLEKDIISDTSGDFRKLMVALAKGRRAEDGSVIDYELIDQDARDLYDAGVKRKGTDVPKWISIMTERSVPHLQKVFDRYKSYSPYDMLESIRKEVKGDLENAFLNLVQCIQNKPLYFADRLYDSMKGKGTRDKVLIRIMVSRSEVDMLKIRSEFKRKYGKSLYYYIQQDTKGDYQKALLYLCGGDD

In the case of `C=CC(=O)N1CCN(c2nc(=O)n(-c3c(C)ccnc3C(C)C)c3nc(-c4c(O)cccc4F)c(F)cc23)[C@@H](C)C1` [AMG510], the “direct LC-MS/MS profiling of modified tryptic peptides” value is “transporters (RAE1 C106, S100A16C4, VDAC2 C91 and C225)” on S100A16; “They included enzymes (PLOD3 C691, RPE C5, SPTLC2 C99, UBE2O C370, and TK1 C3)” at SPTLC2; “off-targets that were identified in previous studies (RTN4 C1101 and HMOX2 C282)” on RTN4; “multifunctional membrane-binding protein (ANXA2 C9)” at ANXA2; “tumor suppressor (PCBP1 C194)” on PCBP1. Further, at ALDOA, the LC-MS/MS site mapping result was “We first confirmed that Cys339 was also endogenously modified by AMG510 in H358 cells”.
